Measurements reported in ChEMBL document CHEMBL4312007, “First synthesis of merged hybrids phosphorylated azirino[2,1-b]benzo[e][1,3]oxazine derivatives as anticancer agents” (Eur J Med Chem, 2020).

Each compound was assayed on A549 (assay: Antiproliferative activity against human A549 cells assessed as inhibition of cell growth incubated for 48 hrs by CCK8 assay). Conditions: A549, 48 h.
Assay type: functional, cell-based

SMILES | IC50 [µM]
C[C@@]12Oc3ccccc3[C@H](O)N1[C@H]2P(=O)(c1ccccc1)c1ccccc1 (relative stereo) | 2.7
CC[C@@]12Oc3ccccc3[C@](C)(O)N1[C@H]2P(=O)(c1ccccc1)c1ccccc1 (relative stereo) | 3.2
CC(C)OP(=O)(OC(C)C)[C@@H]1N2[C@@H](O)c3ccccc3O[C@@]12C (relative stereo) | 3
CC(C)OP(=O)(OC(C)C)[C@@H]1N2[C@@](C)(O)c3ccccc3O[C@@]12C (relative stereo) | 10.3
C[C@@]12Oc3ccc(F)cc3[C@H](O)N1[C@H]2P(=O)(c1ccccc1)c1ccccc1 (relative stereo) | 19.6
CC[C@@]12Oc3c(OC)cccc3[C@H](O)N1[C@H]2P(=O)(c1ccccc1)c1ccccc1 (relative stereo) | 20.7
CCOP(=O)(OCC)[C@@H]1N2[C@@H](O)c3ccccc3O[C@@]12C (relative stereo) | 15.8
COc1cccc2c1O[C@@]1(C)[C@H](P(=O)(c3ccccc3)c3ccccc3)N1[C@H]2O (relative stereo) | 1.3
CC[C@@]12Oc3ccccc3[C@H](O)N1[C@H]2P(=O)(c1ccccc1)c1ccccc1 (relative stereo) | 10.4
CC[C@@]12Oc3ccc(C)cc3[C@H](O)N1[C@H]2P(=O)(c1ccccc1)c1ccccc1 (relative stereo) | 12.9
Cc1ccc2c(c1)[C@H](O)N1[C@@H](P(=O)(c3ccccc3)c3ccccc3)[C@]1(C)O2 (relative stereo) | 3.2
C[C@]1(O)c2ccccc2O[C@@]2(C)[C@H](P(=O)(c3ccccc3)c3ccccc3)N12 (relative stereo) | 21.1

What follows are compounds tested on HEK293 (assay: Antiproliferative activity against HEK293 cells assessed as inhibition of cell growth incubated for 48 hrs by CCK8 assay). Conditions: Homo sapiens, HEK293, 48 h.
Assay type: functional, cell-based

SMILES | IC50 [µM]
C[C@@]12Oc3ccccc3[C@H](O)N1[C@H]2P(=O)(c1ccccc1)c1ccccc1 (relative stereo) | > 50
CC[C@@]12Oc3ccccc3[C@](C)(O)N1[C@H]2P(=O)(c1ccccc1)c1ccccc1 (relative stereo) | > 50
CC(C)OP(=O)(OC(C)C)[C@@H]1N2[C@@H](O)c3ccccc3O[C@@]12C (relative stereo) | > 50
CC(C)OP(=O)(OC(C)C)[C@@H]1N2[C@@](C)(O)c3ccccc3O[C@@]12C (relative stereo) | > 50
C[C@@]12Oc3ccc(F)cc3[C@H](O)N1[C@H]2P(=O)(c1ccccc1)c1ccccc1 (relative stereo) | > 50
CC[C@@]12Oc3c(OC)cccc3[C@H](O)N1[C@H]2P(=O)(c1ccccc1)c1ccccc1 (relative stereo) | > 50
COc1cccc2c1O[C@@]1(C)[C@H](P(=O)(c3ccccc3)c3ccccc3)N1[C@H]2O (relative stereo) | > 50
CC[C@@]12Oc3ccccc3[C@H](O)N1[C@H]2P(=O)(c1ccccc1)c1ccccc1 (relative stereo) | > 50
CC[C@@]12Oc3ccc(C)cc3[C@H](O)N1[C@H]2P(=O)(c1ccccc1)c1ccccc1 (relative stereo) | > 50
Cc1ccc2c(c1)[C@H](O)N1[C@@H](P(=O)(c3ccccc3)c3ccccc3)[C@]1(C)O2 (relative stereo) | > 50
C[C@]1(O)c2ccccc2O[C@@]2(C)[C@H](P(=O)(c3ccccc3)c3ccccc3)N12 (relative stereo) | > 50
COc1cccc2c1C(=O)c1c(O)c3c(c(O)c1C2=O)C[C@@](O)(C(=O)CO)C[C@@H]3O[C@H]1C[C@H](N)[C@H](O)[C@H](C)O1 [DOXORUBICIN] | 5.68

Each compound was assayed on MRC5 (assay: Cytotoxicity against human MRC5 cells assessed as reduction in cell growth incubated for 48 hrs by CCK8 assay). Conditions: MRC5, 48 h.
Assay type: cell-based

SMILES | IC50 [µM]
C[C@@]12Oc3ccccc3[C@H](O)N1[C@H]2P(=O)(c1ccccc1)c1ccccc1 (relative stereo) | > 50
CC[C@@]12Oc3ccccc3[C@](C)(O)N1[C@H]2P(=O)(c1ccccc1)c1ccccc1 (relative stereo) | > 50
CC(C)OP(=O)(OC(C)C)[C@@H]1N2[C@@H](O)c3ccccc3O[C@@]12C (relative stereo) | > 50
CC(C)OP(=O)(OC(C)C)[C@@H]1N2[C@@](C)(O)c3ccccc3O[C@@]12C (relative stereo) | > 50
C[C@@]12Oc3ccc(F)cc3[C@H](O)N1[C@H]2P(=O)(c1ccccc1)c1ccccc1 (relative stereo) | > 50
CC[C@@]12Oc3c(OC)cccc3[C@H](O)N1[C@H]2P(=O)(c1ccccc1)c1ccccc1 (relative stereo) | > 50
CCOP(=O)(OCC)[C@@H]1N2[C@@H](O)c3ccccc3O[C@@]12C (relative stereo) | > 50
COc1cccc2c1O[C@@]1(C)[C@H](P(=O)(c3ccccc3)c3ccccc3)N1[C@H]2O (relative stereo) | > 50
CC[C@@]12Oc3ccccc3[C@H](O)N1[C@H]2P(=O)(c1ccccc1)c1ccccc1 (relative stereo) | > 50
CC[C@@]12Oc3ccc(C)cc3[C@H](O)N1[C@H]2P(=O)(c1ccccc1)c1ccccc1 (relative stereo) | > 50
Cc1ccc2c(c1)[C@H](O)N1[C@@H](P(=O)(c3ccccc3)c3ccccc3)[C@]1(C)O2 (relative stereo) | > 50
C[C@]1(O)c2ccccc2O[C@@]2(C)[C@H](P(=O)(c3ccccc3)c3ccccc3)N12 (relative stereo) | > 50
COc1cccc2c1C(=O)c1c(O)c3c(c(O)c1C2=O)C[C@@](O)(C(=O)CO)C[C@@H]3O[C@H]1C[C@H](N)[C@H](O)[C@H](C)O1 [DOXORUBICIN] | > 50
